The record followed here is patent US20260216170A1, “TETRAHYDROISOQUINOLINE HETEROBIFUNCTIONAL BCL-XL DEGRADERS” (Treeline Biosciences, Inc., priority 2023, published 2026).

The target of this assay is T1, Human BCL-XL protein (N-terminal HiBiT tagged BCL-XL expressed in HT1080 cells) (Homo sapiens, UniProt Q07817).
T1 construct: expressed in transfected cells; host or cells: HT-1080 (ATCC CCL-121), stably transduced with lentivirus pLV-UBC-N-HiBiT-BCL-XL-PGK-puro and selected with puromycin
As to the kind of experiment: HiBiT Based Degradation Assay. It is filed as cell-based. The settings on record: 24 hours incubation; for DC50: BCL-XL degradation, HT1080 cells expressing N-HiBiT-BCL-XL, normalized with DMSO control, geometric mean for multiple data points, read-out: EC50 (24 h); for Ymin (24 h): bottom of BCL-XL degradation curve (remaining HiBiT-BCL-XL signal vs DMSO control), HT1080 cells. The source says: HiBiT Based Degradation Assay
Human BCL-XL protein coding open reading frame fused with N-terminal HiBiT coding sequence (N-HiBiT-BCL-XL) was synthesized from Integrated DNA Technologies (IDT). Next, N-HiBiT-BCL-XL sequence was cloned into pLV-UBC-PGK-Puro, a lentivirus plasmid purchased from Vectorbuilder, to generate pLV-UBC-N-HiBiT-BCL-XL-PGK-puro. Lentiviral particles were generated from Lenti-X™ 293T cells (Clontech) by co-transfection of pLV-UBC-N-HiBiT-BCL-XL-PGK-puro plasmids and lentiviral packaging plasmid mix (Cellecta). HT-1080 [HT1080](ATCC CCL-121™) cells were infected with the lentivirus, and HT1080 cells stably integrated with the lentiviral vector were established by incubation with 1 μg/mL puromycin (Thermofisher). HT1080 cells expressing N-terminal HiBiT tagged BCL-XL were dispensed into 384-well plates pre-spotted with compounds at varying concentrations. Three thousand cells were seeded into each well in 40 μL of RPMI 1640 media. After 24 hours of incubation at 37° C. with 5% CO2, 30 μL of the NANO-GLO® HiBiT Lytic Detection System working solution (Promega) was added to each well and incubated at room temperature for 30 min. After incubation, luminescence was read on a PHERAstar FSX Plate Reader (BMG). BCL-XL degradation at each indicated concentration was normalized with DMSO control. The BCL-XL degradation curves were plotted using a four-parameter logistic model. For compounds displaying hook effects, curve fitting was performed using bottom point of hook curves (i.e., the point of Ymin) as bottom plateau to calculate EC50. For compounds with multiple data points, the geometric mean is presented.
A general note: The HiBiT peptide binds its large partner to form an active luciferase.

T1 sequence (Q07817 whole entry): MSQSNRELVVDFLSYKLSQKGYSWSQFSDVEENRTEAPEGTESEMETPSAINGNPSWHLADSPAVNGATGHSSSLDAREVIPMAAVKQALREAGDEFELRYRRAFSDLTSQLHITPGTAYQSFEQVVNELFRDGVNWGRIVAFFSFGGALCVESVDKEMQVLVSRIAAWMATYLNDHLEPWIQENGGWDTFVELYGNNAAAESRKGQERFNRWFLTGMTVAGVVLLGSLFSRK

On to `Cc1cc(O[C@@H](C)CCC2CCN(CC(=O)Nc3ccc4c(C5CCC(=O)NC5=O)nn(C)c4n3)CC2)ccc1-c1ccc(N2CCc3cccc(C(=O)Nc4nc5ccccc5s4)c3C2)nc1C(=O)O` (single isomer, unassigned) [Compound 225a], for which the DC50 lay within 10 to 100 nM and the “Ymin (24 h)” value is reported as “B (30% ≤ Ymin < 50%)”.

As to `Cn1nc(C2CCC(=O)NC2=O)c2ccc(NC(=O)CN3CCC(CCCOc4cccc(-c5ccc(N6CCc7ccnc(C(=O)Nc8nc9ccccc9s8)c7C6)nc5C(=O)O)c4C(F)(F)F)CC3)cc21` (stereo not drawn) [Compound 159, 6-[8-(1,3-benzothiazol-2-ylcarbamoyl)-3,4-dihydro-1H-2,7-naphthyridin-2-yl]-3-[3-[3-[1-[2-[[3-(2,6-dioxo-3-piperidyl)-1-methyl-indazol-6-yl]amino]-2-oxo-ethyl]-4-piperidyl]propoxy]-2-(trifluoromethyl)phenyl]pyridine-2-carboxylic acid], the DC50 lay within 10 to 100 nM and the “Ymin (24 h)” value is recorded as “B (30% ≤ Ymin < 50%)”.

Turning to `Cc1cc(OCC2CC3(CCN(CC(=O)Nc4cc5c(cc4F)c(C4CCC(=O)NC4=O)nn5C)CC3)C2)ccc1-c1ccc(N2CCc3cccc(C(=O)Nc4nc5ccccc5s4)c3C2)nc1C(=O)O` (stereo not drawn) [Compound 123], the DC50 fell in the range of 10 to 100 nM and the “Ymin (24 h)” value was “B (30% ≤ Ymin < 50%)”.

`Cc1cc(OCCC2CC3(CCN(CC(=O)Nc4ccc5c(C6CCC(=O)NC6=O)nn(C)c5c4)CC3)C2)ccc1-c1ccc(N2CCc3cccc(C(=O)Nc4nc5ccccc5s4)c3C2)nc1C(=O)O` (stereo not drawn) [Compound 115, 6-(8-(benzo[d]thiazol-2-ylcarbamoyl)-3,4-dihydroisoquinolin-2(1H)-yl)-3-(4-(2-(7-(2-((3-(2,6-dioxopiperidin-3-yl)-1-methyl-1H-indazol-6-yl)amino)-2-oxoethyl)-7-azaspiro[3.5]nonan-2-yl)ethoxy)-2-methylphenyl)picolinic acid]: the DC50 lay within 10 to 100 nM and the “Ymin (24 h)” value was “B (30% ≤ Ymin < 50%)”.

Take `Cc1cc(OC[C@@H]2C[C@@H]2CC2CCN(CC(=O)Nc3ccc4c(C5CCC(=O)NC5=O)nn(C)c4c3)CC2)ccc1-c1ccc(N2CCc3cccc(C(=O)Nc4nc5ccccc5s4)c3C2)nc1C(=O)O` (single isomer, unassigned) [Compound 1002d]: the DC50 was below 10 nM and the “Ymin (24 h)” value is recorded as “A (Ymin < 30%)”.

For `Cc1cc(OCCC[C@@H]2CCN(CC(=O)Nc3ccc4c(C5CCC(=O)NC5=O)nn(C)c4c3)[C@@H](C)C2)ccc1-c1ccc(N2CCc3cccc(C(=O)Nc4nc5ccccc5s4)c3C2)nc1C(=O)O` (stereo partly drawn) [Compound 210a], the DC50 was 10 to 100 nM and the “Ymin (24 h)” value is listed as “A (Ymin < 30%)”.

For `Cc1cc(OC[C@H]2C[C@H]2CC2CCN(CC(=O)Nc3ccc4c(C5CCC(=O)NC5=O)nn(C)c4c3)CC2)ccc1-c1ccc(N2CCc3cccc(C(=O)Nc4nc5ccccc5s4)c3C2)nc1C(=O)O` (single isomer, unassigned) [Compound 1002b], the DC50 is below 10 nM and the “Ymin (24 h)” value is “B (30% ≤ Ymin < 50%)”.

On to `COc1c(NC(=O)CN2CCC3(CC2)CC(Oc2cccc(-c4ccc(N5CCc6ccnc(C(=O)Nc7nc8ccccc8s7)c6C5)nc4C(=O)O)c2C)C3)ccc2c(C3CCC(=O)NC3=O)nn(C)c12` (stereo not drawn) [Compound 184, 6-[8-(1,3-benzothiazol-2-ylcarbamoyl)-3,4-dihydro-1H-2,7-naphthyridin-2-yl]-3-[3-[[7-[2-[[3-(2,6-dioxo-3-piperidyl)-7-methoxy-1-methyl-indazol-6-yl]amino]-2-oxo-ethyl]-7-azaspiro[3.5]nonan-2-yl]oxy]-2-methyl-phenyl]pyridine-2-carboxylic acid], for which the DC50 was below 10 nM and the “Ymin (24 h)” value is “B (30% ≤ Ymin < 50%)”.

With `COc1c(NC(=O)CN2CCC(CCCOc3ccc(-c4ccc(N5CCc6cccc(C(=O)Nc7nc8ccccc8s7)c6C5)nc4C(=O)O)c(F)c3)CC2)ccc2c(C3CCC(=O)NC3=O)nn(C)c12` (stereo not drawn) [Compound 201], the DC50 was in the range of 10 to 100 nM and the “Ymin (24 h)” value was “A (Ymin < 30%)”.
